# Laboratory results: patent US10245275B2 (ViiV HEALTHCARE UK (NO.4) LIMITED, priority 2014, dated 2019)
# Like-named read-outs stand apart in the source and are kept apart here.
# Key:
# [1] = test system: HIV-1 NL4-3 gag A364V virus; experiment: microbe, parasite or virus in culture; assay type: cell-based
# Outline: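 Recombinant NL4-3 reporter virus with Renilla luciferase replacing part of nef, made by transfection of 293T cells. MT-2 cells infected for 4-5 days with serial inhibitor dilutions; antiviral activity quantified by luciferase activity.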
# [2] = test system: HIV-1 92UG029 (clade A virus); experiment: HIV cell culture assay, 92UG029 Gag/Pr recombinant virus in MT-2 cells; assay type: cell-based
# Description: MT-2 cells and 293T cells were obtained from the NIH AIDS Research and Reference Reagent Program. MT-2 cells were propagated in RPMI 1640 media supplemented with 10% heat-inactivated fetal bovine serum, […]. The 293T cells were propagated in DMEM media supplemented with 10% heat-inactivated fetal bovine serum (FBS), 100 units/mL penicillin G and 100 μg/mL streptomycin. The proviral DNA clone of NL4-3 was obtained from the NIH AIDS Research and Reference Reagent Program. A recombinant NL4-3 virus, in which a section of the nef gene from NL4-3 was replaced with the Renilla luciferase gene, was used as a reference virus. In addition, residue Gag P373 was converted to P373S. Briefly, the recombinant virus was prepared by transfection of the altered proviral clone of NL4-3. Transfections were performed in 293T cells using LipofectAMINE PLUS from Invitrogen (Carlsbad, Calif.), according to manufacturer's instruction. The virus was titered in MT-2 cells using luciferase enzyme activity as a marker. Luciferase was quantitated using the Dual Luciferase kit from Promega (Madison, Wis.), with modifications to the manufacturer's protocol. The diluted Passive Lysis solution was pre-mixed with the re-suspended Luciferase Assay Reagent and the re-suspended Stop & Glo Substrate (2:1:1 ratio). Fifty (50) μL of the mixture was added to each aspirated well on assay plates and luciferase activity was measured immediately on a Wallac TriLux (Perkin-Elmer). Antiviral activities of inhibitors toward the recombinant virus were quantified by measuring luciferase activity in cells infected for 4-5 days with NLRluc recombinants in the presence serial dilutions of the inhibitor.
# Determination of EC50 for WT, EC50 for A364V, and EC50 for 92UG029 viruses:
# HIV-1 92UG029 was obtained from the NIH (Catalog Number: 1650). This is a subtype A Gag and subtype A Env, X4 (SI) virus from Uganda. Reference: WHO Network for HIV Isolation and Characterization. AIDS Res Hum Retroviruses 10:1359, 1994. The Gag/Pr region from 92UG029 was used to replace that in an HIV-1 NL4-3 virus expressing Renilla luciferase gene.
# Both recombinant viruses were used as described above in the HIV cell culture assay for the NL4-3 virus.
# [3] = test system: WT (wild-type HIV virus; recombinant NL4-3 virus); experiment: microbe, parasite or virus in culture; assay type: cell-based, HIV-1
# Outline: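 MT-2 cells infected 4-5 days with NL4-3 carrying Renilla luciferase in place of part of nef (Gag P373S), virus made by 293T transfection, with serial inhibitor dilutions. Antiviral activity read as luciferase activity by a modified dual-luciferase read-out.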
# [4] = Rat PO pharmacokinetic study; assay type: in vivo; conditions: male, Sprague-Dawley, plasma, oral dose of 5 mg/kg, PEG-400/ethanol (90/10) solution, fasted rats
# Description: Rat Pharmacokinetic Studies:
# For the PO pharmacokinetic studies of the compounds in rats, the compounds were each dissolved in PEG-400/ethanol (90/10) as a solution.
# Rat. Male Sprague-Dawley rats (300-350 g, Hilltop Lab Animals, Inc., Scottsdale, Pa.) with cannulas implanted in the jugular vein were used. The rats were fasted overnight in the PO pharmacokinetic studies. Blood samples of 0.3 mL were collected from the jugular vein in EDTA-containing microtainer tubes (Becton Dickinson, Franklin Lakes, N.J.), and centrifuged to separate plasma.
# In the PO study of the tested compounds, the rats (n=3) received an oral dose of 5 mg/kg of the indicated compound. Serial blood samples were collected before dosing and 15, 30, 45, 60, 120, 240, 360, 480, and 1440 min after dosing.
# Quantitation of Compounds in Plasma. Aliquots of plasma samples from rat, studies were prepared for analysis by precipitating plasma proteins with two volumes of acetonitrile containing an internal standard of a similar compound. The resulting supernates were separated from the precipitated proteins by centrifugation for 10 minutes and transferred to autosampler vials. Samples were either prepared manually, or with the use of the Tomtec automated liquid handler. An aliquot of 5 μL was injected for analysis.
# The HPLC system consisted of two Shimadzu LC10AD pumps (Columbia, Md.), a Shimadzu SIL-HTC autosampler (Columbia, Md.), and a Hewlett Packard Series 1100 column compartment (Palo Alto, Calif.). The column was a YMC Pro C18 (2.0×50 mm, 3 μm particles, Waters Co., Milford, Mass.), maintained at 60° C. and a flow rate of 0.3 ml/min. The mobile phase consisted of 10 mM ammonium formate and 0.1% formic acid in water (A) and 100% 10 mM ammonium formate and 0.1% formic acid in methanol (B). The initial mobile phase composition was 95% A. After sample injection, the mobile phase was changed to 15% A/85% B over 2 minutes and held at that composition for an additional 1 minute. The mobile phase was then returned to initial conditions and the column re-equilibrated for 1 minute. Total analysis time was 4 minutes.
# The HPLC was interfaced to a Micromass Quattro LC. Ultra high purity nitrogen was used as the nebulizing and desolvation gas at flow rates of 100 L/hr for nebulization and 1100 L/hr for desolvation. The desolvation temperature was 300° C. and the source temperature was 150° C. Data acquisition utilized selected reaction monitoring (SRM). Ions representing the (M+H)^+ species for the compound and the internal standard were selected in MS1 and collisionally dissociated with argon at a pressure of 2×10^−3 torr to form specific product ions which were subsequently monitored by MS2.
# [5] = Human immunodeficiency virus 1, NL43, MT2, read-out: A364V (EC50, uM), Table 1 regular screen, MT-2 cells, luciferase readout
# [6] = Human immunodeficiency virus 1, NL43, MT2, read-out: EC50 A364V (μM), Table 2, 3× higher viral input
# [7] = Human immunodeficiency virus 1, MT2, read-out: 92UG029A Clade T332S/V362I/V370A (EC50, uM)
# [8] = Human immunodeficiency virus 1, MT2, read-out: EC50 92UG029 (μM)
# [9] = Human immunodeficiency virus 1, NL43, MT2, read-out: EC50 WT (μM), Table 2, 3× higher viral input
# [10] = Human immunodeficiency virus 1, NL43, MT2, read-out: WT (EC50, uM), Table 1 regular screen, MT-2 cells, luciferase readout
Structure (SMILES),"EC50 [1, 5]","EC50 [1, 6]","EC50 [2, 7]","EC50 [2, 8]","EC50 [3, 9]","EC50 [3, 10]",AUC [4]
"C=C(C)[C@@H]1CC[C@]2(NCCN3CCS(=O)(=O)CC3)CC[C@]3(C)[C@H](CC[C@@H]4[C@@]5(C)CC=C(C6=CC[C@](CF)(C(=O)O)CC6)C(C)(C)[C@@H]5CC[C@]43C)[C@@H]12 [Example 2a, (S)-4-((1R,3aS,5aR,5bR,7aR,11aS,11bR,13aR,13bR)-3a-((2-(1,1-dioxidothiomorpholino)ethyl)amino)-5a,5b, 8,8,11a-pentamethyl-1-(prop-1-en-2-yl)-2,3,3a,4,5,5a,5b,6,7,7a,8,11,11a,11b,12,13,13a,13b-octadecahydro-1H-cyclopenta[a]chrysen-9-yl)-1-(fluoromethyl)cyclohex-3-enecarboxylic acid]",0.16 µM,0.78 µM,0.00706 µM,0.02 µM,0.002 µM,0.00198 µM,7.03 µM·h
"C=C(C)[C@@H]1CC[C@]2(NCCN3CCS(=O)(=O)CC3)CC[C@]3(C)[C@H](CC[C@@H]4[C@@]5(C)CC=C(C6=CC[C@@](CF)(C(=O)O)CC6)C(C)(C)[C@@H]5CC[C@]43C)[C@@H]12 [Example 2b, (R)-4-((1R,3aS,5aR,5bR,7aR,11aS,11bR,13aR,13bR)-3a-((2-(1,1-dioxidothiomorpholino)ethyl)amino)-5a,5b,8,8,11a-pentamethyl-1-(prop-1-en-2-yl)-2,3,3a,4,5,5a,5b,6,7,7a,8,11,11a,11b,12,13,13a,13b-octadecahydro-1H-cyclopenta[a]chrysen-9-yl)-1-(fluoromethyl)cyclohex-3-enecarboxylic acid]",0.201 µM,0.17 µM,0.00618 µM,0.001 µM,0.003 µM,0.00148 µM,7.39 µM·h
"C=C(C)[C@@H]1CC[C@]2(NCCN3CCS(=O)(=O)CC3)CC[C@]3(C)[C@H](CC[C@@H]4[C@@]5(C)CC=C(C6=CCC(CF)(C(=O)O)CC6)C(C)(C)[C@@H]5CC[C@]43C)[C@@H]12 (mixture of isomers) [Example 2, 4-((1R,3aS,5aR,5bR,7aR,11aS,11bR,13aR,13bR)-3a-((2-(1,1-dioxidothiomorpholino)ethyl)amino)-5a,5b,8,8,11a-pentamethyl-1-(prop-1-en-2-yl)-2,3,3a,4,5,5a,5b,6,7,7a,8,11,11a,11b,12,13,13a,13b-octadecahydro-1H-cyclopenta[a]chrysen-9-yl)-1-(fluoromethyl)cyclohex-3-enecarboxylic acid]",0.0847 µM,0.21 µM,0.00461 µM,0.005 µM,0.002 µM,0.00129 µM,7.93 µM·h
